Reference: patent US20160264570A1, “METHOD OF BLOCKING TRANSMISSION OF MALARIAL PARASITE” (THE UNITED STATES OF AMERICA, AS REPRESENTED BY THE …, priority 2013, published 2016)
pEC50, pIC50: −log10 of the molar value. Where two headings read alike, the source gives them in different places.

Tests used:
[1] = test system: Asexual parasites of P. falciparum strain 3D7; assay: SYBR Green viability assay on asexual parasites; assay type: cell-based, Plasmodium falciparum; settings: for pEC50: read-out: Activity against asexual parasites EC50
[2] = test system: P. falciparum strain 3D7 gametocytes; assay: alamarBlue gametocyte viability assay, strain 3D7
HepG2 cells = assay: Cytotoxicity in mammalian HepG2 cell line; settings: for % Max response: HepG2; for IC50 (μM) in HepG2 cells / IC50 (μM) in HepG2: Inactive = no significant activity at highest tested concentration (46 μM)
[3] = read-out: Gametocytocidal activity EC50, Table 6
[4] = Plasmodium falciparum, 3D7, Table 7
[5] = Plasmodium falciparum, 3D7, read-out: Gametocytocidal activity EC50, Table 7
[6] = Homo sapiens, HepG2, read-out: IC50 (μM) in HepG2 cells
[7] = Plasmodium falciparum, 3D7, read-out: Gametocyte IC50
[8] = read-out: Gametocyte IC50, mean of at least 3 independent experiments, P. falciparum 3D7 gametocyte
[9] = Plasmodium falciparum, 3D7, read-out: 3D7-IC50
[10] = Plasmodium falciparum, 3D7, read-out: IC50 against gametocytes

SMILES | pEC50 ([1]; Table 6) | pEC50 [2, 3] | % Max response (HepG2 cells; Table 4) [%] | other results
Cn1c(=O)n(-c2cccc(C(F)(F)F)c2)c2c3cc(-c4cccc(N)c4)ccc3ncc21 | – | – | – | pEC50 [1, 4]: 7.80; pEC50 [2, 5]: 7.16
Cn1ccc2cc(-c3ccc4ncc5ccc(=O)n(-c6cccc(C(F)(F)F)c6)c5c4c3)ccc21 | 5.68 | 5.49 | – | –
O=c1ccc2cnc3ccc(-c4cccc(N5CCCC5)c4)cc3c2n1-c1cccc(C(F)(F)F)c1 | 4.88 | 4.79 | – | –
Nc1ccc(-c2ccc3ncc4ccc(=O)n(-c5cccc(S(N)(=O)=O)c5)c4c3c2)cn1 | 7.09 | 6.53 | – | –
O=c1ccc2cnc3ccc(-c4ccc5sccc5c4)cc3c2n1-c1cccc(C(F)(F)F)c1 | 5.79 | 5.49 | – | –
CO[C@H]1O[C@@H]2O[C@@]3(C)CC[C@H]4[C@H](C)CC[C@@H]([C@H]1C)[C@@]24OO3 [Artemether] | – | – | 7 | IC50 (μM) in HepG2 cells (HepG2 cells; Table 4): Inactive
NC(=O)c1ccc(-c2ccc3ncc4ccc(=O)n(-c5cccc(C(F)(F)F)c5)c4c3c2)cc1 | 5.98 | 5.90 | – | –
Nc1ccc(-c2ccc3ncc4ccc(=O)n(-c5ccccc5)c4c3c2)cn1 | 7.48 | 7.33 | – | –
CO[C@H]1/C=C\C=C(/C)C(=O)NC2=CC(=O)C(NCCN(C)C)=C(C[C@@H](C)C[C@H](OC)[C@H](O)[C@@H](C)/C=C(\C)[C@@H]1OC(N)=O)C2=O [Alvespimycin] | – | – | −94 | IC50 (HepG2 cells; [6]): 0.118 µM
S=C(SSC(=S)N1CCCCC1)N1CCCCC1 [Dicyclopentamethylene-thiuram disulfide, reference compound] | – | – | – | pIC50 [2, 7]: 6.56
Nc1ccc(-c2ccc3ncc4ccc(=O)n(-c5cccc(C(F)(F)F)c5)c4c3c2)cc1 | 7.00 | 6.83 | – | –
CCC(=O)N1CCN(c2ccc(-n3c(=O)ccc4cnc5ccc(-c6cnc7ccccc7c6)cc5c43)cc2C(F)(F)F)CC1 [Torin 1, reference compound] | – | – | – | times less potent than Torin 2 against asexual parasites [1]: 78 times; pIC50 ([1]; read-out: IC50 in viability assay using asexual parasites): 6.67; pIC50 ([2]; read-out: IC50 against 3D7 gametocytes): 5.80
CN(NC(=O)CC(=O)NN(C)C(=S)c1ccccc1)C(=S)c1ccccc1 [Elesclomol, elesclomol, reference compound] | – | – | – | pIC50 [2, 7]: 8.22
O=c1ccc2cnc3ccc(-c4ccc5c(c4)OCC5)cc3c2n1-c1cccc(C(F)(F)F)c1 | 5.65 | 5.48 | – | –
O=c1[nH]c2cnc3ccc(-c4ccc(O)cc4)cc3c2n1-c1cccc(C(F)(F)F)c1 | – | – | – | pEC50 [1, 4]: 6.40; pEC50 [2, 5]: 5.85
O=c1ccc2cnc3ccc(-c4ccc5nonc5c4)cc3c2n1-c1cccc(C(F)(F)F)c1 | 5.76 | 5.34 | – | –
O=c1ccc2cnc3ccc(-c4ccc(-c5nnn[nH]5)cc4)cc3c2n1-c1cccc(C(F)(F)F)c1 | < 4.70 | 4.68 | – | –
O=C(c1ccc(-c2ccc3ncc4ccc(=O)n(-c5cccc(C(F)(F)F)c5)c4c3c2)cc1)N1CCNCC1 | 5.10 | 5.25 | – | –
COC(=O)C[C@](O)(CCCC(C)(C)O)C(=O)O[C@@H]1C(OC)=C[C@]23CCCN2CCc2cc4c(cc2[C@H]13)OCO4 [Omacetaxine] | – | – | −27 | % Max response (HepG2 cells; Table 2): −27%; IC50 (μM) in HepG2 (HepG2 cells; Table 2): Curve not complete; IC50 (μM) in HepG2 cells (HepG2 cells; Table 4): Curve not complete; pIC50 [2, 8]: 7.08
CC(C)C[C@H](NC(=O)[C@H](CCc1ccccc1)NC(=O)CN1CCOCC1)C(=O)N[C@@H](Cc1ccccc1)C(=O)N[C@@H](CC(C)C)C(=O)[C@@]1(C)CO1 [Carfilzomib] | – | – | −79 | IC50 (HepG2 cells; [6]): 1.18 µM

SMILES | pEC50 ([1]; Table 6) | pEC50 [2, 3] | % Max response (HepG2 cells; Table 4) [%] | other results
NC(=O)c1ccc(-c2ccc3ncc4[nH]c(=O)n(-c5cccc(C(F)(F)F)c5)c4c3c2)cc1 | – | – | – | pEC50 [1, 4]: 7.35; pEC50 [2, 5]: 6.64
O=c1ccc2cnc3ccc(N4CCNCC4)cc3c2n1-c1cccc(C(F)(F)F)c1 | < 4.70 | 4.66 | – | –
[O-][n+]1ccccc1SSc1cccc[n+]1[O-] [Dipyrithione] | – | – | −93 | IC50 (HepG2 cells; [6]): 10.8 µM; pIC50 [2, 9]: 6.70
COCCn1c2c([n+](Cc3cnccn3)c1C)C(=O)c1ccccc1C2=O [YM155] | – | – | −92 | IC50 (HepG2 cells; [6]): 4.69 µM; pIC50 [2, 9]: 6.43
O=C1C(=O)c2ncccc2-c2cccnc21 [Phanquinone] | – | – | 23 | IC50 (μM) in HepG2 cells (HepG2 cells; Table 4): Inactive; pIC50 [2, 9]: 7.00
S=C(SSC(=S)N1CCCCC1)N1CCCCC1 [Dicyclopentamethylenethiram disulfide] | – | – | 0 | % Max response (HepG2 cells; Table 2): 0%; IC50 (μM) in HepG2 (HepG2 cells; Table 2): Inactive; IC50 (μM) in HepG2 cells (HepG2 cells; Table 4): Inactive
CC[C@@H](C(=O)O)[C@@H]1O[C@@H]([C@@H](C)[C@H](O)[C@H](C)C(=O)[C@H](CC)[C@H]2O[C@]3(C=C[C@@H](O)[C@]4(CC[C@@](C)([C@H]5CC[C@](O)(CC)[C@H](C)O5)O4)O3)[C@H](C)C[C@@H]2C)[C@@H](C)C[C@@H]1C [Narasin] | – | – | −98 | IC50 (HepG2 cells; [6]): 27 µM; pIC50 [2, 10]: 7.30 to 8.52
C[C@H]1[C@H](OC(=O)CCC(=O)O)O[C@@H]2O[C@@]3(C)CC[C@H]4[C@H](C)CC[C@@H]1[C@@]24OO3 [Artesunate] | – | – | 18 | IC50 (μM) in HepG2 cells (HepG2 cells; Table 4): Inactive
c1ccc2c(c1)[I+]c1ccccc1-2 [Diphenyleneiodonium] | – | – | – | pIC50 [2, 9]: 7.00
C[C@H]1[C@@H](O)O[C@@H]2O[C@@]3(C)CC[C@H]4[C@H](C)CC[C@@H]1[C@@]24OO3 [Artenimol (DHA)] | – | – | 20 | % Max response (HepG2 cells; Table 2): 20%; IC50 (μM) in HepG2 (HepG2 cells; Table 2): Inactive; IC50 (μM) in HepG2 cells (HepG2 cells; Table 4): Inactive; pIC50 [2, 8]: 7.11
CCNC(=O)c1noc(-c2cc(C(C)C)c(O)cc2O)c1-c1ccc(CN2CCOCC2)cc1 [NVP-AUY922] | – | – | −88 | IC50 (HepG2 cells; [6]): 0.148 µM; pIC50 [2, 10]: 7.30 to 8.52
C[C@@H]1CC[C@H]2[C@@H](C)C(=O)O[C@@H]3O[C@@]4(C)CC[C@@H]1[C@]32OO4 [Artemisinin, artemisinin] | – | – | 18 | IC50 (μM) in HepG2 cells (HepG2 cells; Table 4): Inactive; pIC50 [2, 9]: 7.00
OC(c1cc(C(F)(F)F)nc2c(C(F)(F)F)cccc12)C1CCCCN1 (centres unmarked) [Mefloquine, mefloquine] | – | – | −97 | IC50 (HepG2 cells; [6]): 29.6 µM
CO[C@@H]1[C@@H](OC)[C@H](C)[C@@](O)(CC(=O)O)O[C@H]1[C@H](C)[C@H]1O[C@@]2(CC[C@@](C)([C@H]3CC[C@@](C)([C@@H]4O[C@@H]([C@H]5O[C@](C)(O)[C@H](C)C[C@@H]5C)C[C@@H]4O[C@@H]4C[C@H](OC)[C@@H](OC)[C@H](C)O4)O3)O2)C[C@H](O)[C@H]1C [Maduramicin] | – | – | – | Emax (HepG2 cells; Homo sapiens, HepG2, read-out: % Max response): -42%; IC50 (HepG2 cells; Homo sapiens, HepG2, read-out: IC50 (μM) in HepG2): 37.2 µM; IC50 (HepG2 cells; [6]): 37.2 µM; pIC50 [2, 7]: 7.33; pIC50 [2, 10]: 7.30 to 8.52
CC(=O)Nc1cccc(-n2c(=O)n(C3CC3)c(=O)c3c(Nc4ccc(I)cc4F)n(C)c(=O)c(C)c32)c1 [Trametinib] | – | – | 14 | IC50 (μM) in HepG2 cells (HepG2 cells; Table 4): Inactive
CN(C)C/C=C/C(=O)Nc1cc2c(Nc3ccc(F)c(Cl)c3)ncnc2cc1O[C@H]1CCOC1 [Afatinib] | – | – | −100 | IC50 (HepG2 cells; [6]): 18.7 µM; pIC50 [2, 9]: 6.03
CN(C)C(=S)SSC(=S)N(C)C [Thiram] | – | – | 23 | IC50 (μM) in HepG2 cells (HepG2 cells; Table 4): Inactive
COc1ccc(C[C@H](N)C(=O)N[C@H]2[C@@H](O)[C@H](n3cnc4c(N(C)C)ncnc43)O[C@@H]2CO)cc1 [Puromycin] | – | – | −71 | IC50 (HepG2 cells; [6]): 11.8 µM; pIC50 [2, 9]: 5.98
CC(C)C[C@H](NC(=O)[C@H](Cc1ccccc1)NC(=O)c1cnccn1)B(O)O [Bortezomib] | – | – | −82 | IC50 (HepG2 cells; [6]): 0.148 µM; pIC50 [2, 9]: 7.00
COc1cccc2c1C(=O)c1c(O)c3c(c(O)c1C2=O)C[C@@](O)(C(=O)CO)C[C@@H]3O[C@H]1C[C@H](N)[C@H](O)[C@H](C)O1 [Adriamycin] | – | – | −35 | IC50 (μM) in HepG2 cells (HepG2 cells; Table 4): Inactive; pIC50 [2, 9]: 6.28

More lines, main results first:

pEC50 ([1]; Table 6) | SMILES | pEC50 [2, 3] | % Max response (HepG2 cells; Table 4) [%] | other results
6.17 | CCOc1cccc(-n2c(=O)ccc3cnc4ccc(-c5ccc(N)nc5)cc4c32)c1 | 6.04 | – | –
6.88 | O=c1ccc2cnc3ccc(-c4cn[nH]c4)cc3c2n1-c1cccc(C(F)(F)F)c1 | 6.61 | – | –
5.71 | CN(C)c1ncc(-c2ccc3ncc4ccc(=O)n(-c5cccc(C(F)(F)F)c5)c4c3c2)cn1 | 5.50 | – | –
6.89 | O=c1ccc2cnc3ccc(-c4ccc(O)cc4)cc3c2n1-c1cccc(C(F)(F)F)c1 | 6.78 | – | –
6.55 | N#Cc1cccc(-c2ccc3ncc4ccc(=O)n(-c5cccc(C(F)(F)F)c5)c4c3c2)c1 | 6.28 | – | –
5.61 | COc1ccc(-c2ccc3ncc4ccc(=O)n(-c5cccc(C(F)(F)F)c5)c4c3c2)cc1 | 5.49 | – | –
5.93 | O=c1ccc2cnc3ccc(-c4cnc5ccccc5c4)cc3c2n1-c1cccc(C(F)(F)F)c1 | 5.64 | – | –
7.66 | Nc1ncc(-c2ccc3ncc4ccc(=O)n(-c5cccc(C(F)(F)F)c5)c4c3c2)cn1 | 7.40 | – | –
7.72 | O=C1Cc2cc(-c3ccc4ncc5ccc(=O)n(-c6cccc(C(F)(F)F)c6)c5c4c3)ccc2N1 | 7.29 | – | –
5.25 | O=c1ccc2cnc3ccc(Br)cc3c2n1-c1cccc(C(F)(F)F)c1 | 5.31 | – | –
6.79 | NCc1ccc2ncc3ccc(=O)n(-c4cccc(C(F)(F)F)c4)c3c2c1 | 6.55 | – | –
5.68 | CN(C)C(=O)c1ccc(-c2ccc3ncc4ccc(=O)n(-c5cccc(C(F)(F)F)c5)c4c3c2)cc1 | 5.70 | – | –
6.92 | Nc1cccc(-c2ccc3ncc4ccc(=O)n(-c5cccc(C(F)(F)F)c5)c4c3c2)c1 | 6.99 | – | –
